In PMC6394990, “Detailed characterization of the solution kinetics and thermodynamics of biotin, biocytin and HABA binding to avidin and streptavidin” (PLoS ONE, 2019):
Like-named read-outs stand apart in the source and are kept apart here.

What was measured:
[1] = molecular target: T1, avidin (AV) (Gallus gallus, UniProt P02701); test: Relaxation kinetics of unlabeled biotin reacting with the AV-HABA complex; type: binding; conditions: pH 8
T1 construct: purchased Calbiochem (La Jolla, CA)
Method: (§1) All of the following protein concentrations are presented on a binding site basis, thus in the case of the HABA association reactions for AV were measured at 23.0 ± 0.1°C with a concentration of 87 μM HABA and 7.7 μM AV. The AV-HABA relaxation reactions were conducted with a preformed AV-HABA complex made up of 200 μM HABA and 10 μM AV, flowed against varying amounts of B7 from 100 μM up to 4000 μM for a [HABA]/[B7] ratio that ranged from 0.05 to 2.
The relaxation experiments were prepared at concentrations in which HABA occupies all sites (AV-HABA4). Biotin replaces HABA relative to the koff of the dye as shown for the first step (Eq 1) and then repeated for all sites. Having greater affinity, B7 occupies all sites at the end of the reaction and the measured kon is related to the affinities of the ligand bound protein.
The reaction is monitored by the HABA absorbance changes at 500 nm as it is replaced by unlabeled B7; yielding the relaxation constant of the reaction (Relaxation, Eq 2) which contains information of the B7 association rate constant of the open binding site, k1AV−HABA3 to form a full saturated complex (AV-HABA4) and the dissociation rate of that full complex, k−1AV−HABA4 , to yield a complex with three HABA molecules (AV-HABA3). In the subsequent steps, B7 replaces HABA as the ligand but the release of HABA creates an unoccupied site that remains in the same state. In summary, the experiment was designed to acquire the pseudo-first order association rate constant of B7 binding ( konB ) to the solely free binding site in a complex occupied by three HABA molecules (AV-HABA3).
The reciprocal of the relaxation constant (1/Relaxation) is plotted vs. the [HABA]/[B] concentration ratio (Eq 3) allowing to calculate: k−1AV−HABA4 and k1AV−HABA3 by solving for the intercept ( 1/k−1AV−HABA4 ) and the respective slope: m=k1AV−HABA3/(k−1AV−HABA4∙konB) . The exponential decays were analyzed by the method of Foss. There was no departure from simple first order decay in the relaxation, justifying the use of the following model and equations.

[2] = molecular target: T1, avidin (AV); test: HABA association reaction for AV (stopped-flow absorbance at 500 nm); type: binding; conditions: 23°C
Method: as §1
These calculations have been described elsewhere and were acquired for the AB1 complexes. The HABA association reaction for AV was carried out under pseudo-first order conditions on a micro absorbance SF instrument equipped with a xenon arc lamp (described above) and a monochromator (model 82–410, Jarrel-Ash, Waltham, Mass.) set at 500 nm.

[3] = molecular target: T1, avidin (AV); conditions: pH 8; read-out: KD AV-HABA; cited from earlier work

T1 sequence (P02701 25-152): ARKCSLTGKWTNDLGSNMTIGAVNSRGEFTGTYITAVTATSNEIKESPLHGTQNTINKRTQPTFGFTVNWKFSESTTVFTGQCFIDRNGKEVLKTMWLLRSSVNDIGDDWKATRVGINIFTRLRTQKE

O=C(O)c1ccccc1N=Nc1ccc(O)cc1 [HABA, 2-(4’-hydroxyazobenzene)-benzoic acid]
Kd ([1]; from k−1 and k1): 12.2 µM | k−1 AV−HABA4, HABA dissociation rate constant of the AV-HABA4 complex ([1]; 23°C): 6.23 ± 0.11 s⁻¹ | k1 AV−HABA3, HABA association rate for the final site [2]: 5.1 ± 0.1 × 10^5 M^-1s^-1 | Kd [3]: 12 µM
